Legend:
[1] = test system: undifferentiated gene expression in hard corn seedlings; experiment: RT-PCR amplification and sequencing of genes expressed in different growth phases, from seedlings germinated with 5-AzaCytidine; design: species or system Triticum durum; details: MSO germination medium; 0.1-1 mM tested
Description: Furthermore, to confirm the efficiency of the method used, several genes were identified which are expressed in different growth phases of soft corn, of which a large number of sequences are available as this species of corn is more widely studied that hard corn. On the basis of the sequences deposited in data banks (National Center for Biotechnology Information, NCBI; European Bioinformatics Institute, EBI) pairs of oligonucleotides identified in the zones flanking the region encoding the nucleotidic sequence, were prepared, and subsequently used as primers for the amplification of the whole gene being tested. […]
The cDNA inserts were first amplified with the appropriate primers, cloned in the vector p-GEMT and introduced into the competent cells Escherichia coli (E. coli) DH5α. The recombinant clones, containing the expected fragments, were characterized by restriction analysis and their identity was confirmed by effecting sequence reactions carried out using the ABI Prism Big TaqDyeDeoxyTerminator Cycle Sequencing Kit (Applied Biosystems, Nr. 4303149) and analyzed with the automatic ABI 377 DNA Sequencer (Perkin Elmer ABI Prism). […]

genomic DNA of hard corn = experiment: Digestion of genomic DNA with restriction enzymes sensitive to methylation (CfoI, Hpa2, Msp1); design: species or system Triticum durum; details: seedlings about 21 days after germination; 5-azaC 0.1, 0.3, 0.5, 1 mM vs control
Description: Analyses for correlating the demethylation degree of the DNA with an increase in the undifferentiated gene expression were carried out by digestion of the genomic DNA with restriction enzymes sensitive to methylation, i.e. enzymes which preferentially act on hypomethylated DNA.
Analyses for correlating the demethylation degree of the DNA with an increase in the undifferentiated gene expression were carried out by digesting the genomic DNA with the following restriction enzymes: Cfol, Hpa2, Msp1 (Roche), sensitive to methylation.
For each reaction, about 5 μg of total DNA were digested with 20 units of enzyme in a final volume of 150 μl, for a night at 37° C. Each digestion product was precipitated and resuspended in 30μl of H2O. The digestion mixtures were separated on agarose gel at 0.8% and subjected to horizontal electrophoresis, for a night at […] (Sambrook, J. et al., 1989, Cold Spring Harbor Laboratory Press).

hard corn seedlings = experiment: Germination of hard corn seeds on MSO medium with 5-azaC: seedling phenotype; assay type: in vivo, Triticum durum; details: increasing concentration of 5-azaC (0.1-1 mM), aerial part and roots, 24° C. in the dark
Description: According to this method, the germination of the seeds is generally effected at a temperature ranging from 20 to 30° C., preferably from 22 to 26° C., in the dark and in the presence of concentrations of 5-azaC ranging from 0.1 mM to 2 mM, preferably from 0.3 mM to 0.5 mM.
Seeds of hard corn (Triticum durum) were sterilized in a solution of ethyl alcohol at 70% for 10 minutes under stirring. After eliminating the ethanol, the seeds were treated with a solution containing sodium hypochlorite (ACE) at 50% and Sodium Dodecyl Sulfate (SDS) at 0.5%, incubated at room temperature for 20 minutes under light stirring.
The seeds were subsequently washed with sterile H2O until the complete removal of the foam (about 7-8 times) and about 15-20 seeds were then placed in a Magenta Box each containing: 30 ml of MSO substrate (Sucrose 15 g/l, Muraschige-Sckug MS salts 2.2 g/l, Thiamin 0.2 mg/l, Myoinositol 50 mg/l, pH 5.6, agar 7 g/l), different concentrations of 5-azac (0.1 mM, 0.3 mM, 0.5 mM and 1 mM) and germinated in a chamber thermostat-regulated at 24° C. in the dark.
Seeds of hard corn left to germinate in MSO medium without 5-azac, were used as a control.

digestion of the genomic DNA by methylation-sensitive restriction enzymes (demethylation degree) (genomic DNA of hard corn): different digestion of the genomic DNA
Compound: Nc1ncn([C@@H]2O[C@H](CO)[C@@H](O)[C@H]2O)c(=O)n1 [5-azaC, 5-AzaCytidine]
concentration in the germination medium giving the best results (totipotent gene expression) [1]: 0.3 to 0.5 mM | phenotype of the seedlings compared with control cultivated without 5-azaC (hard corn seedlings): slowing down in the development of the seedlings

Reference: US20070009891A1, “Method for the isolation of expressed sequence tags in plants” (Metapontum Agrobios S.R.L., priority 2003, published 2007)
